Laboratory results taken from patent EP2970215B1, “PYRROLIDINE DERIVATIVES, PHARMACEUTICAL COMPOSITIONS CONTAINING THEM, AND THEIR USE IN THERAPY” (AbbVie Deutschland GmbH & Co. KG, priority 2013, dated 2014).

Target: T1, human GlyT1c transporter (Homo sapiens, UniProt P48067)
T1 construct: expressed in transfected cells; host or cells: CHO cells (recombinant; line hGlyT1c_5_CHO is named for the uptake assay)
T1 sequence (P48067 1-706): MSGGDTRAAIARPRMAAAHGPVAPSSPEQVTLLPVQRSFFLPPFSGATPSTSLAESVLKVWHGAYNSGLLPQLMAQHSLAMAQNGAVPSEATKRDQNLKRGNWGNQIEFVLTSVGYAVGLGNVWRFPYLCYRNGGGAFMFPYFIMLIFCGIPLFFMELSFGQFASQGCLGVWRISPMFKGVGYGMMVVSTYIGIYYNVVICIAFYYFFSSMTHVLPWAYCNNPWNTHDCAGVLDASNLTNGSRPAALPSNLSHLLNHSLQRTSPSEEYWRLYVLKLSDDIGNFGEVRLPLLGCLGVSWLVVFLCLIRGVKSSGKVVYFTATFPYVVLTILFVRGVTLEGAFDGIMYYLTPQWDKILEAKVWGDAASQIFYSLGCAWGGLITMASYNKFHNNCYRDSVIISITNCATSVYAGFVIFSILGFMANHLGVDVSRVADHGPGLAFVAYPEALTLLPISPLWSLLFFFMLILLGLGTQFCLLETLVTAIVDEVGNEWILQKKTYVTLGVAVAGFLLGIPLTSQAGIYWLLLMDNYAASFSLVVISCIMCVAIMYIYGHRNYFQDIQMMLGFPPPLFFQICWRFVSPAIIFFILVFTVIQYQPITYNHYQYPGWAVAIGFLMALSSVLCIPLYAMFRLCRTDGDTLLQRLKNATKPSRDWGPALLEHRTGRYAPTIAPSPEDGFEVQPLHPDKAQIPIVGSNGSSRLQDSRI
Experiment: Radioligand binding assay using recombinant CHO cell membranes expressing human GlyT1
Conditions: radioligand binding to human GlyT1c transporter-expressing membranes
From the text: 2. Radioligand binding assays using recombinant CHO cell membranes expressing human GlyT1: […]

Row | SMILES | Ki
1 | Cc1nc(CN[C@H]2CN(S(=O)(=O)c3cn(C)cn3)C[C@@H]2c2ccccc2)cs1 [Example 533, (3R,4S)-1-[(1-methyl-1H-imidazol-4-yl)sulfonyl]-N-[(2-methyl-1,3-thiazol-4-yl)methyl]-4-phenylpyrrolidin-3-amine] | ≤ 10 µM
2 | CCc1oc2ccccc2c1CN[C@H]1CN(S(=O)(=O)c2cn(C)cn2)C[C@@H]1c1ccccc1 [Example 534, (3R,4S)-N-[(2-ethyl-1-benzofuran-3-yl)methyl]-1-[(1-methyl-1H-imidazol-4-yl)sulfonyl]-4-phenylpyrrolidin-3-amine] | ≤ 1 µM
3 | Cn1cnc(S(=O)(=O)N2C[C@H](NCc3cccn4ccnc34)[C@@H](c3ccccc3)C2)c1 [Example 535, (3R,4S)-N-(imidazo[1,2-a]pyridin-8-ylmethyl)-1-[(1-methyl-1H-imidazol-4-yl)sulfonyl]-4-phenylpyrrolidin-3-amine] | ≤ 10 µM
4 | Cc1ccc(CN[C@H]2CN(S(=O)(=O)c3cn(C)cn3)C[C@@H]2c2ccccc2)nc1 [Example 536, (3R,4S)-1-[(1-methyl-1H-imidazol-4-yl)sulfonyl]-N-[(5-methylpyridin-2-yl)methyl]-4-phenylpyrrolidin-3-amine] | ≤ 1 µM
5 | Cn1cnc(S(=O)(=O)N2C[C@H](NCc3cnn4ccccc34)[C@@H](c3ccccc3)C2)c1 [Example 537, (3R,4S)-1-[(1-methyl-1H-imidazol-4-yl)sulfonyl]-4-phenyl-N-(pyrazolo[1,5-a]pyridin-3-ylmethyl)pyrrolidin-3-amine] | ≤ 10 µM
6 | Cn1cnc(S(=O)(=O)N2CC(NCc3ccc(C(F)(F)F)cc3)C(O)(c3ccccc3)C2)c1 (stereo not drawn) [Example 539, 1-[(1-methyl-1H-imidazol-4-yl)sulfonyl]-3-phenyl-4-{[4-(trifluoromethyl)benzyl]amino}pyrrolidin-3-ol] | ≤ 10 µM
7 | CCOC(=O)N[C@H]1CN(S(=O)(=O)c2cn(C)cn2)C[C@@H]1c1ccccc1 [Example 541, ethyl {(3R,4S)-1-[(1-methyl-1H-imidazol-4-yl)sulfonyl]-4-phenylpyrrolidin-3-yl}carbamate] | ≤ 10 µM
8 | CCCOC(=O)N[C@H]1CN(S(=O)(=O)c2cn(C)cn2)C[C@@H]1c1ccccc1 [Example 542, propyl {(3R,4S)-1-[(1-methyl-1H-imidazol-4-yl)sulfonyl]-4-phenylpyrrolidin-3-yl}carbamate] | ≤ 10 µM
9 | CCCCOC(=O)N[C@H]1CN(S(=O)(=O)c2cn(C)cn2)C[C@@H]1c1ccccc1 [Example 544, butyl {(3R,4S)-1-[(1-methyl-1H-imidazol-4-yl)sulfonyl]-4-phenylpyrrolidin-3-yl}carbamate] | ≤ 10 µM
10 | Cn1cnc(S(=O)(=O)N2C[C@H](NCCC3CC3)[C@@H](c3ccccc3)C2)c1 [Example 545, (3R,4S)-N-(2-cyclopropylethyl)-1-[(1-methyl-1H-imidazol-4-yl)sulfonyl]-4-phenylpyrrolidin-3-amine] | ≤ 1 µM
11 | Cn1cnc(S(=O)(=O)N2C[C@H](NC(=O)CC3CC3)[C@@H](c3ccccc3)C2)c1 [Example 546, 2-cyclopropyl-N-{(3R,4S)-1-[(1-methyl-1H-imidazol-4-yl)sulfonyl]-4-phenylpyrrolidin-3-yl}acetamide] | ≥ 10 µM
12 | CCC/C=C/CN[C@H]1CN(S(=O)(=O)c2cn(C)cn2)C[C@@H]1c1ccccc1 [Example 547, (3R,4S)-N-[(2E)-hex-2-en-1-yl]-1-[(1-methyl-1H-imidazol-4-yl)sulfonyl]-4-phenylpyrrolidin-3-amine] | ≤ 0.1 µM
13 | CCCCC(=O)N[C@H]1CN(S(=O)(=O)c2cn(C)cn2)C[C@@H]1c1ccccc1 [Example 549, N-{(3R,4S)-1-[(1-methyl-1H-imidazol-4-yl)sulfonyl]-4-phenylpyrrolidin-3-yl}pentanamide] | ≤ 10 µM
14 | CCCCCC(=O)N[C@H]1CN(S(=O)(=O)c2cn(C)cn2)C[C@@H]1c1ccccc1 [Example 550, N-{(3R,4S)-1-[(1-methyl-1H-imidazol-4-yl)sulfonyl]-4-phenylpyrrolidin-3-yl}hexanamide] | ≤ 10 µM
15 | Cn1cnc(S(=O)(=O)N2C[C@H](NCCO[Si](C)(C)C(C)(C)C)[C@@H](c3ccccc3)C2)c1 [Example 551, (3R,4S)-N-(2-{[tert-butyl(dimethyl)silyl]oxy}ethyl)-1-[(1-methyl-1H-imidazol-4-yl)sulfonyl]-4-phenylpyrrolidin-3-amine] | ≤ 10 µM

Other lines, results leading:

Row | Ki | SMILES
16 | ≥ 10 µM | CC(=O)Nc1ncc(S(=O)(=O)N2CC(Nc3ccc(F)c(F)c3)C(c3ccccc3)C2)s1 (stereo not drawn) [Example 499, N-[5-({3-[(3,4-difluorophenyl)amino]-4-phenylpyrrolidin-1-yl}sulfonyl)-1,3-thiazol-2-yl]acetamide]
17 | ≤ 10 µM | O=S(=O)(c1ccc(C(F)(F)F)nc1)N1CC(Nc2ccc(F)c(F)c2)C(c2ccccc2)C1 (stereo not drawn) [Example 500, N-(3,4-difluorophenyl)-4-phenyl-1-{[6-(trifluoromethyl)pyridin-3-yl]sulfonyl}pyrrolidin-3-amino]
18 | ≤ 10 µM | O=c1[nH]c2ccc(S(=O)(=O)N3CC(Nc4ccc(F)c(F)c4)C(c4ccccc4)C3)cc2[nH]c1=O (stereo not drawn) [Example 501, 6-({3-[(3,4-difluorophenyl)amino]-4-phenylpyrrolidin-1-yl}sulfonyl)-1,4-dihydroquinoxaline-2,3-dione]
19 | ≥ 10 µM | Cn1ccc2cc(S(=O)(=O)N3CC(Nc4ccc(F)c(F)c4)C(c4ccccc4)C3)ccc21 (stereo not drawn) [Example 503, N-(3,4-difluorophenyl)-1-[(1-methyl-1H-indol-5-yl)sulfonyl]-4-phenylpyrrolidin-3-amine]
20 | ≤ 10 µM | O=c1[nH]c2ccc(S(=O)(=O)N3CC(Nc4ccc(F)c(F)c4)C(c4ccccc4)C3)cc2[nH]1 (stereo not drawn) [Example 506, 5-({3-[(3,4-difluorophenyl)amino]-4-phenylpyrrolidin-1-yl}sulfonyl)-1,3-dihydro-2H-benzimidazol-2-one]
21 | ≤ 10 µM | O=C1Cc2cc(S(=O)(=O)N3CC(Nc4ccc(F)c(F)c4)C(c4ccccc4)C3)ccc2N1 (stereo not drawn) [Example 507, 5-({3-[(3,4-difluorophenyl)amino]-4-phenylpyrrolidin-1-yl}sulfonyl)-1,3-dihydro-2H-indol-2-one]
22 | ≤ 10 µM | O=S(=O)(C1CCCCC1)N1CC(Nc2ccc(F)c(F)c2)C(c2ccccc2)C1 (stereo not drawn) [Example 510, 1-(cyclohexylsulfonyl)-N-(3,4-difluorophenyl)-4-phenylpyrrolidin-3-amine]
23 | ≤ 10 µM | O=C1CCc2cc(S(=O)(=O)N3CC(Nc4ccc(F)c(F)c4)C(c4ccccc4)C3)ccc2N1 (stereo not drawn) [Example 512]
24 | > 10 µM | Cc1noc(C)c1S(=O)(=O)N1CC(Nc2ccc(F)c(F)c2)C(c2ccccc2)C1 (stereo not drawn) [Example 513, N-(3,4-difluorophenyl)-1-[(3,5-dimethyl-1,2-oxazol-4-yl)sulfonyl]-4-phenylpyrrolidin-3-amine]
25 | ≤ 10 µM | O=c1[nH]c2cc(S(=O)(=O)N3CC(Nc4ccc(F)c(F)c4)C(c4ccccc4)C3)ccc2o1 (stereo not drawn) [Example 514, 5-({3-[(3,4-difluorophenyl)amino]-4-phenylpyrrolidin-1-yl}sulfonyl)-1,3-benzoxazol-2(3H)-one]
26 | ≤ 10 µM | O=S(=O)(c1cccc2cnccc12)N1CC(Nc2ccc(F)c(F)c2)C(c2ccccc2)C1 (stereo not drawn) [Example 515, N-(3,4-difluorophenyl)-1-(isoquinolin-5-ylsulfonyl)-4-phenylpyrrolidin-3-amine]
27 | ≤ 10 µM | Cc1cc(S(=O)(=O)N2CC(Nc3ccc(F)c(F)c3)C(c3ccccc3)C2)c(C)s1 (stereo not drawn) [Example 517, N-(3,4-difluorophenyl)-1-[(2,5-dimethylthiophen-3-yl)sulfonyl]-4-phenylpyrrolidin-3-amine]
28 | > 10 µM | Cc1ccc(S(=O)(=O)N2CC(Nc3ccc(F)c(F)c3)C(c3ccccc3)C2)s1 (stereo not drawn) [Example 518, N-(3,4-difluorophenyl)-1-[(5-methylthiophen-2-yl)sulfonyl]-4-phenylpyrrolidin-3-amine]
29 | > 10 µM | O=S(=O)(c1ccc2c(c1)CCO2)N1CC(Nc2ccc(F)c(F)c2)C(c2ccccc2)C1 (stereo not drawn) [Example 519, N-(3,4-difluorophenyl)-1-(2,3-dihydro-1-benzofuran-5-ylsulfonyl)-4-phenylpyrrolidin-3-amine]
30 | ≤ 10 µM | O=S(=O)(c1c(Cl)nc2sccn12)N1CC(Nc2ccc(F)c(F)c2)C(c2ccccc2)C1 (stereo not drawn) [Example 520, 1-[(6-chloroimidazo[2,1-b][1,3]thiazol-5-yl)sulfonyl]-N-(3,4-difluorophenyl)-4-phenylpyrrolidin-3-amine]
31 | ≤ 10 µM | O=S(=O)(N1CCOCC1)N1CC(Nc2ccc(F)c(F)c2)C(c2ccccc2)C1 (stereo not drawn) [Example 521, N-(3,4-difluorophenyl)-1-(morpholin-4-ylsulfonyl)-4-phenylpyrrolidin-3-amine]
32 | ≤ 10 µM | COc1nccc(N[C@H]2CN(S(=O)(=O)c3cn(C)cn3)C[C@@H]2c2ccccc2)n1 [Example 532, 2-methoxy-N-{(3R,4S)-1-[(1-methyl-1H-imidazol-4-yl)sulfonyl]-4-phenylpyrrolidin-3-yl}pyrimidin-4-amine]
33 | ≤ 10 µM | Cn1cnc(S(=O)(=O)N2C[C@H](NCc3cccc(C(F)(F)F)n3)[C@@H](c3ccccc3)C2)c1 [Example 552]
